Results on 1 molecule are retold here after patent publication US9133492B2, “Kanamycin compound, kanamycin-producing Streptomyces species bacterium, and method of producing kanamycin” (iNtRON Biotechnology, Inc., priority 2010, dated 2015).

The experiment has as its system S. venezuelae. In words: Resistance of S. venezuelae strains to kanamycin. It is filed as cell-based, Streptomyces venezuelae. The method, then: As expected, the recombinant heterologous strain expressing kanA-kanB-kanK (DOS strain) produced compound 1 (21.4 μM) (FIG. 2A). To confer resistance to kanamycin in S. venezuelae without modifying the aminoglycoside structure, three resistance genes gtmF-gtmK-gtmL from the gentamicin gene cluster were introduced into the recombinant heterologous strain. Transformants expressing these genes were resistant to >10.0 mg/ml of the commercially available kanamycin compared to 1.0 μg/ml in control strains. These resistance genes were expressed together with the kanamycin biosynthetic genes in the heterologous host in subsequent experiments.

For `NC[C@H]1O[C@H](O[C@H]2[C@H](O)[C@@H](O[C@H]3O[C@H](CO)[C@@H](O)[C@H](N)[C@H]3O)[C@H](N)C[C@@H]2N)[C@H](O)[C@@H](O)[C@@H]1O` [kanamycin], the “kanamycin concentration the strain is resistant to” value runs as follows: (S. venezuelae transformants expressing resistance genes gtmF-gtmK-gtmL) more than 10.0 mg/mL; (control strains) 0.001 mg/mL.
